The text below walks through data of article PMC5684323 (2017).

For assay [1], the system named is STRN3 "ESE" (RNA, single strand) AAGAAGGAACGAAAGGGGAAGAAAGGGG
Put plainly: SPR (Biacore), immobilised RNA. As to conditions: 150 mM NaCl, no Mg2+ (35 mM EDTA); 10 mM HEPES pH 7.4, 0.05% P20, 0.1% DMSO, 25 °C; 10 µM tested.

Assay [2] relates to ESE2 RNA (NMR) (RNA, single strand) AAAAAGAAGGAAGG
Put plainly: 1H NMR titration. The note with it: 50 mM NaCl; 10 mM MES pH 5.5, 10% D2O, 310 K.

Assay [3] deals with ESE2 (SPR) (RNA, single strand) AAAAAGAAGGAAGG
Kind of assay: SPR (Biacore), immobilised RNA. As to conditions: 150 mM NaCl, no Mg2+ (35 mM EDTA); 10 mM HEPES pH 7.4, 0.05% P20, 0.1% DMSO, 25 °C; 10 µM tested.

Assay [4] concerns Exon 7 (RNA, mRNA element) UACAGGGUUUUAGACAAAAUCAAAAAGAAGGAAGGUGCUCACAUUCCUUAAAUUAAGGAGUAAG
Kind of assay: SPR (Biacore), immobilised RNA. As to conditions: 150 mM NaCl, no Mg2+ (35 mM EDTA); 10 mM HEPES pH 7.4, 0.05% P20, 0.1% DMSO, 25 °C; 10 µM tested.

Structures are written as SMILES.

On to `Cc1cn2cc(-c3cc(=O)n4cc(N5CCN(C(=O)CCN)CC5)ccc4n3)cc(F)c2n1`, for which the figures for the binding entry in assay [1], in assay [2] and in assay [3] were “weak”, “yes” and “weak”, respectively.
For `Cc1cn2cc(-c3cc(=O)n4cc(N5CCN(C)CC5)ccc4n3)cc(F)c2n1`, the binding entry in assay [1], in assay [4], in assay [2] and in assay [3] was “yes” throughout.
